Data from patent US10563263B2, “Genetic polymorphisms associated with statin response and cardiovascular diseases, methods of detection and uses thereof” (CELERA CORPORATION, priority 2010, dated 2020).

Test system: CHD (death from CHD, nonfatal MI, or revascularization)
Experiment: WOSCOPS: SNP by pravastatin treatment interaction, logistic regression (synergy index), CHD endpoint
Type: in vivo, human
Conditions: for OR (synergy index): WOSCOPS
From the text: CARE was a secondary prevention trial and WOSCOPS was a primary prevention trial.
The CHD endpoint was defined in the analyses herein of CARE as a composite endpoint of fatal CHD, definite non-fatal MI, or revascularization, and was defined in the analyses herein of WOSCOPS as a composite endpoint of death from CHD, nonfatal MI, or revascularization. In both the CARE and WOSCOPS analyses herein, the CVD endpoint was defined as a composite endpoint of CHD or stroke. […] Revascularization, which can include percutaneous transluminal coronary angioplasty (PTCA), stent placement, and coronary artery bypass graft (CABG), are medical interventions that indicate the presence of CHD.
Cohort and case-only study designs were used to identify SNPs associated with response to statin treatment.
For each SNP, a logistic regression model having treatment status as the dependent variable and SNP as the independent predictor variable was performed, with terms for age, sex and race included in the model as covariates. The anti-log of the regression coefficient corresponding to the SNP is an estimate of the synergy index (SI) (Davis et al., “Imputing gene-treatment interactions when the genotype distribution is unknown using case-only and putative placebo analyses-a new method for the Genetics of Hypertension Associated Treatment (GenHAT) study”, Statistics in Medicine 23: (2004), pages 2413-2427). The SI is a ratio of odds ratios: for example in the CARE and WOSCOPS studies, the SI represents the factor by which the odds-ratio of statin treatment, compared with placebo, among major homozygous individuals is multiplied by in order to obtain the odds-ratio of treatment vs. placebo among heterozygous individuals; and multiplied by a second time to obtain the odds-ratio of treatment vs. placebo in minor homozygous individuals. The case-only study design results in a valid estimate of the SI under the assumption that genotype and treatment are independent in the population. In a randomized clinical trial, genotype and treatment are independent by design. The p-value for the regression coefficient corresponding to the SNP results from a test of the null hypothesis that the regression coefficient is equal to zero (SI is equal to one) and thus small p-values indicate the SI is unlikely equal to one and that the effect of treatment likely differs by genotype. […]

## CC[C@H](C)C(=O)O[C@H]1C[C@H](O)C=C2C=C[C@H](C)[C@H](CC[C@@H](O)C[C@@H](O)CC(=O)O)[C@H]21 [Pravastatin, pravastatin]
rs4726711, source CaseOnly, model add, endpoint CHD
  WOSCOPS OR: 0.62
rs4736802 allele G, DOM model, Imputed
  OR (synergy index): 1.614
rs4760785 allele A, ADD model, Imputed
  OR (synergy index): 0.7714
rs4760785 allele A, DOM model, Imputed
  OR (synergy index): 0.5986
rs4760894 allele T, ADD model, Imputed
  OR (synergy index): 0.7714
rs4760894 allele T, DOM model, Imputed
  OR (synergy index): 0.5986
rs4760895 allele A, ADD model, Imputed
  OR (synergy index): 0.7714
rs4760895 allele A, DOM model, Imputed
  OR (synergy index): 0.5986
rs4764738 allele A, ADD model, Imputed
  OR (synergy index): 1.555
rs4764974 allele T, ADD model, Imputed
  OR (synergy index): 1.512
rs4798366 allele G, REC model, Imputed
  OR (synergy index): 2.304
rs4830819, source CaseOnly, model add, endpoint CHD
  WOSCOPS OR: 0.66
rs4836502 allele T, DOM model, Imputed
  OR (synergy index): 0.6887
rs4836507 allele C, DOM model, Imputed
  OR (synergy index): 0.6884
rs4836744 allele A, ADD model, Imputed
  OR (synergy index): 0.7704
rs4836744 allele A, DOM model, Imputed
  OR (synergy index): 0.6637
rs4836745, Source caseonly
  WOSCOPS OR: 0.65
rs4848944 allele C, REC model, Genotyped
  OR (synergy index): 0.464
rs4851529 allele A, DOM model, Imputed
  OR (synergy index): 0.5663
rs4851531 allele T, DOM model, Imputed
  OR (synergy index): 0.5588
rs4870109, Source caseonly
  WOSCOPS OR: 1.47
rs4878214 allele A, ADD model, Imputed
  OR (synergy index): 0.7413
rs4880803 allele A, ADD model, Imputed
  OR (synergy index): 0.7588
rs4896568 allele T, DOM model, Imputed
  OR (synergy index): 0.5426
rs4924215, source CaseOnly, model dom, endpoint CHD
  WOSCOPS OR: 1.46
rs4938851 allele T, DOM model, Imputed
  OR (synergy index): 1.301
rs4964416 allele C, DOM model, Imputed
  OR (synergy index): 0.6799
rs5750116, source cohort, model dom, endpoint CHD
  WOSCOPS OR: 1.45
rs5756669 allele C, DOM model, Imputed
  OR (synergy index): 1.541
rs6033138 allele C, ADD model, Imputed
  OR (synergy index): 1.407
rs6033138 allele C, REC model, Imputed
  OR (synergy index): 1.414
rs6040619 allele C, ADD model, Imputed
  OR (synergy index): 1.488
rs6040619 allele C, REC model, Imputed
  OR (synergy index): 1.688
rs6040625 allele T, ADD model, Imputed
  OR (synergy index): 1.479
rs6040625 allele T, REC model, Imputed
  OR (synergy index): 1.634
rs6040630 allele A, ADD model, Imputed
  OR (synergy index): 1.42
rs6040630 allele A, REC model, Imputed
  OR (synergy index): 1.462
rs6040633 allele A, ADD model, Imputed
  OR (synergy index): 1.407
rs6080603, source CaseOnly, model dom, endpoint CHD
  WOSCOPS OR: 0.68
rs6474228, Source caseonly
  WOSCOPS OR: 1.83
rs6491586, source CaseOnly, model dom, endpoint CHD
  WOSCOPS OR: 1.78
rs6505669, source CaseOnly, model dom, endpoint CHD
  WOSCOPS OR: 1.37
rs6585412, Source caseonly
  WOSCOPS OR: 1.44
rs6998016, Source caseonly
  WOSCOPS OR: 9.63
rs7018577, Source caseonly
  WOSCOPS OR: 1.94
rs7078016, Source caseonly
  WOSCOPS OR: 1.44
rs7193741, source cohort, model rec, endpoint CHD
  WOSCOPS OR: 1.87
rs7305949, Source caseonly
  WOSCOPS OR: 1.74
rs7332076, Source caseonly
  WOSCOPS OR: 2.18
rs7449527, Source caseonly
  WOSCOPS OR: 1.71
rs7521242, source CaseOnly, model add, endpoint CHD
  WOSCOPS OR: 0.74
rs7625204, source cohort, model add, endpoint CHD
  WOSCOPS OR: 1.38
rs7629632, source CaseOnly, model dom, endpoint CHD
  WOSCOPS OR: 1.72
rs7705993, source CaseOnly, model add, endpoint CHD
  WOSCOPS OR: 1.44
rs7742508, source cohort, model dom, endpoint CHD
  WOSCOPS OR: 1.93
rs7839562, Source caseonly
  WOSCOPS OR: 1.63
rs7916629, Source caseonly
  WOSCOPS OR: 1.66
rs9446187, source cohort, model dom, endpoint CHD
  WOSCOPS OR: 2.05
rs9859901, source CaseOnly, model add, endpoint CHD
  WOSCOPS OR: 0.41
rs10120126, source CaseOnly, model dom, endpoint CHD
  WOSCOPS OR: 0.48
rs10155047, source cohort, model add, endpoint CHD
  WOSCOPS OR: 0.50
rs10189905, source cohort, model add, endpoint CHD
  WOSCOPS OR: 0.56
rs10305439, source CaseOnly, model dom, endpoint CHD
  WOSCOPS OR: 0.63
rs10429616, source cohort, model rec, endpoint CHD
  WOSCOPS OR: 1.54
rs10497883, Source caseonly
  WOSCOPS OR: 0.67
rs10500736, source cohort, model dom, endpoint CHD
  WOSCOPS OR: 0.52
rs10774580, Source caseonly
  WOSCOPS OR: 0.56
rs10814422, source CaseOnly, model dom, endpoint CHD
  WOSCOPS OR: 0.46
rs10935907, source CaseOnly, model dom, endpoint CHD
  WOSCOPS OR: 1.49
rs10945874, Source caseonly
  WOSCOPS OR: 1.24
rs10973013, source CaseOnly, model dom, endpoint CHD
  WOSCOPS OR: 0.48
rs11138314, Source cohort
  WOSCOPS OR: 0.59
rs11148285, Source caseonly
  WOSCOPS OR: 2.30
rs11585647, Source caseonly
  WOSCOPS OR: 0.67
rs11721179, Source caseonly
  WOSCOPS OR: 0.60
rs12556591, source CaseOnly, model add, endpoint CHD
  WOSCOPS OR: 0.66
rs13126170, Source caseonly
  WOSCOPS OR: 0.78
rs13129010, Source caseonly
  WOSCOPS OR: 1.90
rs13137776, source CaseOnly, model add, endpoint CHD
  WOSCOPS OR: 0.62
rs13279522, source cohort, model add, endpoint CHD
  WOSCOPS OR: 0.63
rs13318232, source CaseOnly, model dom, endpoint CHD
  WOSCOPS OR: 0.40
rs13431868, source CaseOnly, model dom, endpoint CHD
  WOSCOPS OR: 1.42
rs16885715, Source caseonly
  WOSCOPS OR: 1.58
rs17002013, Source caseonly
  WOSCOPS OR: 1.66
rs17076974, source cohort, model add, endpoint CHD
  WOSCOPS OR: 1.32
rs17138705, source CaseOnly, model add, endpoint CHD
  WOSCOPS OR: 0.70
rs17688430, Source caseonly
  WOSCOPS OR: 0.71
rs17706237, source CaseOnly, model dom, endpoint CHD
  WOSCOPS OR: 1.52
